From ChEMBL document CHEMBL4334471, “Discovery of 1,8-disubstituted-[1,2,3]triazolo[4,5-c]quinoline derivatives as a new class of Hippo signaling pathway inhibitors” (Bioorg Med Chem Lett, 2019)

Assays:
[1] = test system: Eukaryotic elongation factor 2 kinase (Homo sapiens), O00418 [H23R]; assay: Inhibition of recombinant human eEF-2K H23R mutant (2 to end residues) assessed as residual activity at 10 uM using RKKFGESEKTKTK as substrate at 40 mins in presence of [gamma-33ATP] by scintillation counting based radiometry assay relative to control
Homo sapiens = species on record: Homo sapiens; assay: Inhibition of recombinant human FLT4 V1128L/H1146R mutant (800 to end residues) assessed as residual activity at 10 uM using GGEEEEYFELVKKKK as substrate at 40 mins in presence of [gamma-33ATP] by scintillation counting based radiometry assay relative to control
[2] = molecular target: Testis-specific serine/threonine-protein kinase 3 (Homo sapiens) (UniProt Q96PN8); assay: Inhibition of recombinant full-length human TSSK3 assessed as residual activity at 10 uM using AMARAASAAALARRR as substrate incubated for 40 mins in presence of [gamma33P]ATP by scintillation counting based radiometry assay relative to control
[3] = test system: Serine/threonine-protein kinase TAO3 (Homo sapiens), Q9H2K8 [UNDEFINED MUTATION]; assay: Inhibition of recombinant human TAO3 N47S mutant (1 to 411 residues) assessed as residual activity at 10 uM using myelin basic protein as substrate incubated for 40 mins in presence of [gamma33P]ATP by scintillation counting based radiometry assay relative to control
[4] = molecular target: Mitogen-activated protein kinase 1 (Homo sapiens) (UniProt P28482); assay: Inhibition of recombinant full length human MAPK1 assessed as residual activity at 10 uM using myelin basic protein as substrate incubated for 40 mins in presence of [gamma-33ATP by scintillation counting based radiometry assay relative to control
[5] = molecular target: Misshapen-like kinase 1 (Homo sapiens) (UniProt Q8N4C8); assay: Inhibition of recombinant human MINK (1 to 320 residues) assessed as residual activity at 10 uM using myelin basic protein as substrate incubated for 40 mins in presence of [gamma-33ATP by scintillation counting based radiometry assay relative to control
[6] = test system: Mast/stem cell growth factor receptor Kit (Homo sapiens), P10721 [V654A]; assay: Inhibition of recombinant human C-Kit V654A mutant (544 to end residues) assessed as residual activity at 10 uM poly(Glu, Tyr) 4:1 as substrate incubated 40 mins in presence of [gamma-33ATP] by scintillation counting based radiometry assay relative to control
[7] = test system: Angiopoietin-1 receptor (Homo sapiens), Q02763 [Q939H,Q940H,Y897S]; assay: Inhibition of recombinant human TIE2 Q939H/Q940H/Y897S mutant (771 to end residues) assessed as residual activity at 10 uM using EFPIYDFLPAKKK as substrate incubated for 40 mins in presence of [gamma33P]ATP by scintillation counting based radiometry assay relative to control
[8] = molecular target: Serine/threonine-protein kinase Chk1 (Homo sapiens) (UniProt O14757); assay: Inhibition of recombinant full length human CHK1 assessed as residual activity at 10 uM using KKKVSRSGLYRSPSMPENLNRPR as substrate incubated for 40 mins in presence of [gamma-33ATP] by scintillation counting based radiometry assay relative to control
[9] = molecular target: Fibroblast growth factor receptor 1 (Homo sapiens) (UniProt P11362); assay: Inhibition of recombinant human FGFR1 (456 to 765 residues) assessed as residual activity at 10 uM using KKKSPGEYVNIEF as substrate at 40 mins in presence of [gamma-33ATP] by scintillation counting based radiometry assay relative to control
[10] = molecular target: Homeodomain-interacting protein kinase 3 (Homo sapiens) (UniProt Q9H422); assay: Inhibition of human HIPK3 (161 to 562 residues) assessed as residual activity at 10 uM using myelin basic protein as substrate after 40 mins by [gamma-33ATP] radiometric assay relative to control
[11] = molecular target: Wee1-like protein kinase (Homo sapiens) (UniProt P30291); assay: Inhibition of recombinant human WEE1 (214 to end residues) assessed as residual activity at 10 uM using LSNLYHQGKFLQTFCGSPLYRRR as substrate incubated for 40 mins in presence of [gamma33P]ATP by scintillation counting based radiometry assay relative to control
[12] = molecular target: Serine/threonine-protein kinase ULK2 (Homo sapiens) (UniProt Q8IYT8); assay: Inhibition of recombinant human ULK2 (1 to 306 residues) assessed as residual activity at 10 uM using casein as substrate incubated for 40 mins in presence of [gamma33P]ATP by scintillation counting based radiometry assay relative to control
[13] = molecular target: Tyrosine-protein kinase Lyn (Homo sapiens) (UniProt P07948); assay: Inhibition of recombinant human Lyn assessed as residual activity at 10 uM using poly(Glu, Tyr) 4:1 as substrate after 40 mins in presence of [gamma-33ATP] by scintillation counting based radiometry assay relative to control
[14] = molecular target: Casein kinase I isoform gamma-1 (Homo sapiens) (UniProt Q9HCP0); assay: Inhibition of recombinant human CK1gamma1 assessed as residual activity at 10 uM using KRRRALS(p)VASLPGL as substrate incubated for 40 mins in presence of [gamma-33ATP] by scintillation counting based radiometry assay relative to control
[15] = molecular target: Receptor-interacting serine/threonine-protein kinase 1 (Homo sapiens) (UniProt Q13546); assay: Inhibition of recombinant human RIPK1 (8 to 322 residues) assessed as residual activity at 10 uM using myelin basic protein as substrate incubated for 40 mins in presence of [gamma33P]ATP by scintillation counting based radiometry assay relative to control
[16] = molecular target: Rhodopsin kinase GRK7 (Homo sapiens) (UniProt Q8WTQ7); assay: Inhibition of recombinant full length human GRK7 assessed as residual activity at 10 uM using casein as substrate at 40 mins in presence of [gamma-33ATP] by scintillation counting based radiometry assay relative to control
[17] = molecular target: Mitogen-activated protein kinase kinase kinase 7 (Homo sapiens) (UniProt O43318); assay: Inhibition of recombinant human TAK1 (1 to 303 residues) assessed as residual activity at 10 uM using casein as substrate incubated for 40 mins in presence of [gamma33P]ATP by scintillation counting based radiometry assay relative to control
[18] = molecular target: Serine/threonine-protein kinase MARK2 (Homo sapiens) (UniProt Q7KZI7); assay: Inhibition of recombinant full-length human PAR1Balpha assessed as residual activity at 10 uM using KKKVSRSGLYRSPSMPENLNRPR as substrate measured after 40 mins in presence of [gamma33P]ATP by scintillation counting based radiometry assay relative to control
[19] = test system: Hepatocyte growth factor receptor (Homo sapiens), P08581 [M1250T]; assay: Inhibition of recombinant human MET A1209G/V1290L/M1268T mutant (974 to end residues) assessed as residual activity at 10 uM using KKKGQEEEYVFIE as substrate incubated for 40 mins in presence of [gamma-33ATP by scintillation counting based radiometry assay relative to control

Chain of Serine/threonine-protein kinase Chk1 (Homo sapiens) (O14757 whole entry, the tested form may be a part): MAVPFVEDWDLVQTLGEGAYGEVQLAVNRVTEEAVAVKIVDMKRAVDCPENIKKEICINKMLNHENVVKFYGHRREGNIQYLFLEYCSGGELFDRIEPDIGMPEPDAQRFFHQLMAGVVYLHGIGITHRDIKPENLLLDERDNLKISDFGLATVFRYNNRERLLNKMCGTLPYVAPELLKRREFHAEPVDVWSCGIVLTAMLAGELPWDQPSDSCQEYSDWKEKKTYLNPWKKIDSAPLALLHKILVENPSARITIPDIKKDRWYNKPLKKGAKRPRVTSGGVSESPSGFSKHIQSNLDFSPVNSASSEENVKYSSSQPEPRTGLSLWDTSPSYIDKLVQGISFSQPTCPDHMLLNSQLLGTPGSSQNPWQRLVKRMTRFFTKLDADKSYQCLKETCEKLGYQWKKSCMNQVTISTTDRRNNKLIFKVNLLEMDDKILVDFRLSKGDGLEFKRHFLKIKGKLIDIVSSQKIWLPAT
Chain of Testis-specific serine/threonine-protein kinase 3 (Homo sapiens) (Q96PN8 whole entry, the tested form may be a part): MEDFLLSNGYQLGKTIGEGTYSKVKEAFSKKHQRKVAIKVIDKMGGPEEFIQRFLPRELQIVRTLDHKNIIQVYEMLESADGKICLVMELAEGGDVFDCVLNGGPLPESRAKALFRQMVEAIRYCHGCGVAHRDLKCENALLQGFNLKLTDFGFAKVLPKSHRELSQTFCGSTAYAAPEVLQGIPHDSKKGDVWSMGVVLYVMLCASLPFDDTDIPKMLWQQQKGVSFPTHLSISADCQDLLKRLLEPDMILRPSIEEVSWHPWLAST
Chain of Serine/threonine-protein kinase TAO3 (Homo sapiens), Q9H2K8 [UNDEFINED MUTATION] (Q9H2K8 whole entry, looked up, stated change not applied, the tested form may be a part): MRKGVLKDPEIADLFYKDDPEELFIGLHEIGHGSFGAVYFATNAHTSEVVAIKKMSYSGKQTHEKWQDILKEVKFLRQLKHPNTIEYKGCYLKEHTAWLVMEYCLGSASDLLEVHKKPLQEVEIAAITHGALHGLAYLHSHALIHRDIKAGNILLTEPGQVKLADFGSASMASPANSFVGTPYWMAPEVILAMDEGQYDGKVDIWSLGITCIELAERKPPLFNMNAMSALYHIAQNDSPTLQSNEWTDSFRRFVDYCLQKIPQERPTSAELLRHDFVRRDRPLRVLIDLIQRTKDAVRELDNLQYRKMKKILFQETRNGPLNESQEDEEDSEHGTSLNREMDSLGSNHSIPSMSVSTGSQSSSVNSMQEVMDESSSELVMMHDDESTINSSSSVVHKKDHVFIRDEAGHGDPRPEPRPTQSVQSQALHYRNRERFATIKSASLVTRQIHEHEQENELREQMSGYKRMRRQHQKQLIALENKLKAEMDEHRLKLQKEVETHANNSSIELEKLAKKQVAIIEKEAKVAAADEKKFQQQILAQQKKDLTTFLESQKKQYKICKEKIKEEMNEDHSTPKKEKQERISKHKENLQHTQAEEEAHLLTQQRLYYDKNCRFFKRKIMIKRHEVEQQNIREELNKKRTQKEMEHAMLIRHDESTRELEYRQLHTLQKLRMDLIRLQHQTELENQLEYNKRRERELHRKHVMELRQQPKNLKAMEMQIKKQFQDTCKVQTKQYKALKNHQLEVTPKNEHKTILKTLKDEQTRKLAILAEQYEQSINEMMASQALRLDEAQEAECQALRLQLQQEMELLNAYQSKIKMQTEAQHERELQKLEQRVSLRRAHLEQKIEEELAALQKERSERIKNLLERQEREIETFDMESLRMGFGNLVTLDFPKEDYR
Chain of Casein kinase I isoform gamma-1 (Homo sapiens) (Q9HCP0 whole entry, looked up, the tested form may be a part, canonical isoform): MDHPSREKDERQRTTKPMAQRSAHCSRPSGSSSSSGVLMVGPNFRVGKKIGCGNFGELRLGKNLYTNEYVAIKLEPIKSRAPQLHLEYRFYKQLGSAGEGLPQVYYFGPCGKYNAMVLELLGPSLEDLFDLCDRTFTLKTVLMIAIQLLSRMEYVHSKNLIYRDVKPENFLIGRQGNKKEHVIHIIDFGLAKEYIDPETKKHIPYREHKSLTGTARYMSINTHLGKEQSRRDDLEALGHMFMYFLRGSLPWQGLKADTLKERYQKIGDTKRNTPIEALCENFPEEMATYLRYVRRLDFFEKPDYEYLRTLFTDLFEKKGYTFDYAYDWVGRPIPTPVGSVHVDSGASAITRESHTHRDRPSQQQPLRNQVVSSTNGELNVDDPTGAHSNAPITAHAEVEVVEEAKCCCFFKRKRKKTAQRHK
Chain of Tyrosine-protein kinase Lyn (Homo sapiens) (P07948 2-512 limits assumed): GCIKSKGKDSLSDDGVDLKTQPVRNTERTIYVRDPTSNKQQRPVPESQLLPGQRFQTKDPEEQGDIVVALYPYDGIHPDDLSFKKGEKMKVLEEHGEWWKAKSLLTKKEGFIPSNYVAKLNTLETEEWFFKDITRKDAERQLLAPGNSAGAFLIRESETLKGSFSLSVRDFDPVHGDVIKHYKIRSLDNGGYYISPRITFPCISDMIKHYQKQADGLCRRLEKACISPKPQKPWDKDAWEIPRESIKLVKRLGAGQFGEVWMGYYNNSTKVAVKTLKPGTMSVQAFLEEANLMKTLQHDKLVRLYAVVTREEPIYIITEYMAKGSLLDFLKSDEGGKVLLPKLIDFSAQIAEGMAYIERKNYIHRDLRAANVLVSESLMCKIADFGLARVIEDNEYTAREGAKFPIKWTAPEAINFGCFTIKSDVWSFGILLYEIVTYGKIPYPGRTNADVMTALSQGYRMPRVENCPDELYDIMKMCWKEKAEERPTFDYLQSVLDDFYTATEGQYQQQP
Chain of Serine/threonine-protein kinase MARK2 (Homo sapiens) (Q7KZI7 whole entry): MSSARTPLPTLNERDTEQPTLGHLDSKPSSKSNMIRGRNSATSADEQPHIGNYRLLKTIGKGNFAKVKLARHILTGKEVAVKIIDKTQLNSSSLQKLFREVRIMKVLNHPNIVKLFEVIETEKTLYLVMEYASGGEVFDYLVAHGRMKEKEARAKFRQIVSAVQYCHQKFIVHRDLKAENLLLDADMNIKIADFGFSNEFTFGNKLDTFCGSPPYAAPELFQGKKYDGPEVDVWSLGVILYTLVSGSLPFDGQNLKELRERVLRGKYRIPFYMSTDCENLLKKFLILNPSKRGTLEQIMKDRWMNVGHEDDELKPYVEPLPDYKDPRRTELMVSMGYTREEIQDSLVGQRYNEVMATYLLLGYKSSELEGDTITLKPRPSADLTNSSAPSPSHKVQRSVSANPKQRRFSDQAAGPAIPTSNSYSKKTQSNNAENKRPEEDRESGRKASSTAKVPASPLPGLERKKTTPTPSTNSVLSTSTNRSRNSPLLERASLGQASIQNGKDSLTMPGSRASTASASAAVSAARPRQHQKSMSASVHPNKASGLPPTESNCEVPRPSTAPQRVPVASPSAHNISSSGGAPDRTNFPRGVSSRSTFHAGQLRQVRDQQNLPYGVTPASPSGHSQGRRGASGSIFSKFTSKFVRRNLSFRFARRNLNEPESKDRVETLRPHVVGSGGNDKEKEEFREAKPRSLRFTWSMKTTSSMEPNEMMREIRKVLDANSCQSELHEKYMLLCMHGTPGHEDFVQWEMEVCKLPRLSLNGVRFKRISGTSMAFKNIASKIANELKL
Chain of Mitogen-activated protein kinase 1 (Homo sapiens) (P28482 whole entry, the tested form may be a part): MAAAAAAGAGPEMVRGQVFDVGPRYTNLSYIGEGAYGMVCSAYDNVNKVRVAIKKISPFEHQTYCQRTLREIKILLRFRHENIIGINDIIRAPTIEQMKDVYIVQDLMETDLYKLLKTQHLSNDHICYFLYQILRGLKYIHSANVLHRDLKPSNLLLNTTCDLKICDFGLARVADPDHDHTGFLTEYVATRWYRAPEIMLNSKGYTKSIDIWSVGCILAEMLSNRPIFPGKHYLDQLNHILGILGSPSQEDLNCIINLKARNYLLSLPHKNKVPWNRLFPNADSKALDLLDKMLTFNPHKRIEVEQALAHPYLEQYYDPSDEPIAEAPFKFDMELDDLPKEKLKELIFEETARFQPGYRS
Chain of Serine/threonine-protein kinase ULK2 (Homo sapiens) (Q8IYT8 whole entry, the tested form may be a part): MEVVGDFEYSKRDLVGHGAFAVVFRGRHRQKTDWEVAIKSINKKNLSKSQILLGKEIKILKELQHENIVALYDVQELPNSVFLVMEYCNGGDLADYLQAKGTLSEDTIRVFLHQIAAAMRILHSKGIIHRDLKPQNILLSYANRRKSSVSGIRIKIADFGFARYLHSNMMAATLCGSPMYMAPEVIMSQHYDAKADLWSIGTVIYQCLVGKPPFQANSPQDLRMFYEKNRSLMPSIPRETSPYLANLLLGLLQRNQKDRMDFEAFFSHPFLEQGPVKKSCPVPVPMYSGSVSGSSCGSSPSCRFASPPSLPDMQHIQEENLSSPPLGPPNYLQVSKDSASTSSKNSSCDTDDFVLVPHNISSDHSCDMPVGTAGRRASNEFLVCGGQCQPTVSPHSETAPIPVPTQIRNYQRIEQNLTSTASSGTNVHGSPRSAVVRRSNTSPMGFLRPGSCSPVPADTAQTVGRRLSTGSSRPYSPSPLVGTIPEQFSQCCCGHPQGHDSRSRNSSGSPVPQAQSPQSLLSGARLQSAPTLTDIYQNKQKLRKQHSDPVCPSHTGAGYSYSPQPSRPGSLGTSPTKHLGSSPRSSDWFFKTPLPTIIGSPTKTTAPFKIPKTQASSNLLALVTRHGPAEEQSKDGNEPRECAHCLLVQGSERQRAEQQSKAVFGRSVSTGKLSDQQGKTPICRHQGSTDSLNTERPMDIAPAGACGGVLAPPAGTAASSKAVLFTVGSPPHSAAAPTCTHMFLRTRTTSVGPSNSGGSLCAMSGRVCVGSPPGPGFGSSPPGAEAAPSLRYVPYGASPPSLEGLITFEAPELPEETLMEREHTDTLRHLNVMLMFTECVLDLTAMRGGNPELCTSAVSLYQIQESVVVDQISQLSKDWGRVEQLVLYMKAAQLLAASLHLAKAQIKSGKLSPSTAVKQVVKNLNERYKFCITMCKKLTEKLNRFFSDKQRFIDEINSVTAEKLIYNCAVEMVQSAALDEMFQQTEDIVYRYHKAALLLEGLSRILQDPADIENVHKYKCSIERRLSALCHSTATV

C[C@@H](c1ccccc1)n1nnc2cnc3ccc(-c4cnc5[nH]ccc5c4)cc3c21
Activity [1]: 129% | Activity (Homo sapiens): 13% | Activity [2]: 64% | Activity [3]: 68% | Activity [4]: 100% | Activity [5]: 81% | Activity [6]: 109% | Activity [7]: 81% | Activity [8]: 140% | Activity [9]: 34% | Activity [10]: 75% | Activity [11]: 101% | Activity [12]: 98% | Activity [13]: 3% | Activity [14]: 48% | Activity [15]: 98% | Activity [16]: 90% | Activity [17]: 91% | Activity [18]: 85% | Activity [19]: 45%
